The record followed here is PubChem BioAssay AID248 (DTP/NCI, 2004).

This test has as its system L1210 leukemia ip in BDF1 mice, survival T/C. As to the kind of experiment: NCI In Vivo Anticancer Drug Screen. Data for tumor model L1210 Leukemia (intraperitoneal) in B6D2F1 (BDF1) mice. The following applies: endpoint: mean survival time, higher = longer survival. Put shortly: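 In this screen, tumor-bearing mice given compound are compared to those given vehicle, and their survival values are reported as a treated-to-control quotient.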

Setting [1] is: dose: 100.0 mg/kg/injection, schedule: Q04DX002 (ip), vehicle: Klucel (hydroxypropylcellulose) (HPC).
Setting [2] is: dose: 200.0 mg/kg/injection, schedule: Q04DX002 (ip), vehicle: Klucel (hydroxypropylcellulose) (HPC).
The mark [3] stands for this setting: dose: 400.0 mg/kg/injection, schedule: Q04DX002 (ip), vehicle: Klucel (hydroxypropylcellulose) (HPC).
Setting [4] is: dose: 100.0 mg/kg/injection, schedule: Q01DX001 (ip), vehicle: saline.
Where [5] appears, read: dose: 200.0 mg/kg/injection, schedule: Q01DX001 (ip), vehicle: saline.
Setting [6] is: dose: 400.0 mg/kg/injection, schedule: Q01DX001 (ip), vehicle: saline.

Toxic doses and inconclusive results are not listed.

Consider `Cc1ccc([N+](=O)[O-])cc1NC(=O)Sc1ccccc1O`, for which the T/C runs as follows: (dose: 200.0 mg/kg/injection, schedule: Q04DX003 (ip), vehicle: saline with Tween-80) 92 % of control; (dose: 400.0 mg/kg/injection, schedule: Q04DX003 (ip), vehicle: saline with Tween-80) 90 % of control.
Take `CCCC(NCc1ccccc1)C(=O)O` (centres undefined): the T/C is, setting by setting: (dose: 100.0 mg/kg/injection, schedule: Q01DX009 (ip), vehicle: acetone) 90 % of control; (dose: 200.0 mg/kg/injection, schedule: Q01DX009 (ip), vehicle: acetone) 90 % of control; (dose: 400.0 mg/kg/injection, schedule: Q01DX009 (ip), vehicle: acetone) 90 % of control.
On to `CN(C(=O)/C=C\c1ccccc1)c1ccccc1`, for which the T/C under setting [1] is 104 % of control, the T/C under setting [2] was 104 % of control and the T/C under setting [3] was 104 % of control.
Turning to `C=CC(=O)NC1CCCCC1`, the T/C runs as follows: (dose: 25.0 mg/kg/injection, schedule: Q01DX009 (ip), vehicle: Klucel (hydroxypropylcellulose) (HPC)) 97 % of control; (dose: 50.0 mg/kg/injection, schedule: Q01DX009 (ip), vehicle: Klucel (hydroxypropylcellulose) (HPC)) 95 % of control; (dose: 100.0 mg/kg/injection, schedule: Q01DX009 (ip), vehicle: Klucel (hydroxypropylcellulose) (HPC)) 102 % of control; (dose: 100.0 mg/kg/injection, schedule: Q04DX003 (ip), vehicle: Klucel (hydroxypropylcellulose) (HPC)) 100 % of control; (dose: 200.0 mg/kg/injection, schedule: Q04DX003 (ip), vehicle: Klucel (hydroxypropylcellulose) (HPC)) 98 % of control; (dose: 400.0 mg/kg/injection, schedule: Q04DX003 (ip), vehicle: Klucel (hydroxypropylcellulose) (HPC)) 100 % of control.
As to `CC1N=C(c2ccc(NC(=O)c3ccc(C(=O)Nc4ccc(C5=NC(C)C(C)N5)cc4)cc3)cc2)NC1C` (centres undefined), the T/C is, setting by setting: (dose: 0.5 mg/kg/injection, schedule: Q01DX015 (ip), vehicle: water) 104 % of control; (dose: 0.75 mg/kg/injection, schedule: Q01DX001 (ip), vehicle: water) 101 % of control; (dose: 1.0 mg/kg/injection, schedule: Q01DX015 (ip), vehicle: water) 110 % of control; (dose: 1.5 mg/kg/injection, schedule: Q01DX001 (ip), vehicle: water) 98 % of control; (dose: 2.0 mg/kg/injection, schedule: Q01DX001 (ip), vehicle: water) 106 % of control; (dose: 3.0 mg/kg/injection, schedule: Q01DX001 (ip), vehicle: water) 103 % of control. The T/C runs as follows: (dose: 3.0 mg/kg/injection, schedule: Q01DX015 (ip), vehicle: water) 189 % of control; (dose: 4.0 mg/kg/injection, schedule: Q01DX015 (ip), vehicle: water) 222 % of control.
For `CC(=O)NC(Cc1ccsc1)(C(=O)O)C(=O)O`, the T/C under setting [4] is 93 % of control, the T/C under setting [5] is 98 % of control and the T/C under setting [6] was 98 % of control.
Turning to `CCC1(CC)C(=O)NC(=O)N(C)C1=O`, the T/C under setting [1] was 112 % of control and the T/C under setting [2] is 88 % of control.
On to `Nc1ncnn1C(=O)OCc1ccccc1`, for which the T/C is, setting by setting: under setting [4], 98 % of control; (dose: 100.0 mg/kg/injection, schedule: Q01DX009 (ip), vehicle: saline) 89 % of control; under setting [5], 112 % of control; (dose: 200.0 mg/kg/injection, schedule: Q01DX009 (ip), vehicle: saline) 96 % of control; under setting [6], 93 % of control; (dose: 400.0 mg/kg/injection, schedule: Q01DX009 (ip), vehicle: saline) 100 % of control.
`O=C(/C(=C\c1ccccc1)CO)c1ccccc1`: the T/C (dose: 12.5 mg/kg/injection, schedule: Q01DX009 (ip), vehicle: saline with Tween-80) is 89 % of control; the T/C (dose: 25.0 mg/kg/injection, schedule: Q01DX009 (ip), vehicle: saline with Tween-80) is 89 % of control; the T/C (dose: 50.0 mg/kg/injection, schedule: Q01DX009 (ip), vehicle: saline with Tween-80) is 87 % of control; the T/C (dose: 62.0 mg/kg/injection, schedule: Q01DX009 (ip), vehicle: saline with Tween-80) is 106 % of control.
On to `Cc1ccc(Nc2cccc3c2C(=O)c2c(Nc4ccc(C)cc4C)cccc2C3=O)c(C)c1`, for which the T/C is 97 % of control (dose: 100.0 mg/kg/injection, schedule: Q04DX002 (ip), vehicle: saline); 117 % of control (dose: 200.0 mg/kg/injection, schedule: Q04DX002 (ip), vehicle: saline); 100 % of control (dose: 400.0 mg/kg/injection, schedule: Q04DX002 (ip), vehicle: saline).
Consider `CCN(CC)C(=S)[S][Bi]([S]C(=S)N(CC)CC)[S]C(=S)N(CC)CC`, for which the T/C by setting is: (dose: 100.0 mg/kg/injection, schedule: Q01DX001 (ip), vehicle: steriod suspending solution) 112 % of control; (dose: 200.0 mg/kg/injection, schedule: Q01DX001 (ip), vehicle: steriod suspending solution) 91 % of control; (dose: 400.0 mg/kg/injection, schedule: Q01DX001 (ip), vehicle: steriod suspending solution) 96 % of control.
`[N-]=[N+]=C1N=NC=C1C(N)=O`: the T/C reads like this: (dose: 50.0 mg/kg/injection, schedule: Q01DX001 (ip), vehicle: saline) 98 % of control; under setting [4], 107 % of control; under setting [5], 107 % of control.
Turning to `CC1C(c2ccccc2)OCCN1CN1C(=O)c2ccccc2C1=O` (centres undefined), the T/C is, setting by setting: under setting [1], 100 % of control; under setting [2], 104 % of control; under setting [3], 104 % of control.
